Measured values taken from patent US10662146B2, “Prodrugs of fencamfamine” (Praxis Bioresearch, LLC, priority 2015, dated 2020).
Where two headings read alike, the source gives them in different places.

What was measured:
[1] = Single dose intravenous PK study in male Sprague Dawley rats (plasma by LC-MS/MS); assay type: in vivo; settings: male, Sprague Dawley, rat; IV 2 mg/kg [equivalent to PRX-002 (−)], analyte: prodrug in plasma, mean; read-out: IV PK Parameters Tmax, Prodrug
Protocol: (§1) We describe here PK results of prodrugs of PRX-002 (−) or (+) isomers. All doses of prodrugs were administered such that they were equivalent to 5 mg/kg of PRX-002 (−) or (+) for oral studies and 2 mg/kg PRX-002 (−) or (+) for intravenous studies in male Sprague-Dawley (MSD) rats. Higher doses of up to 10 or 15 mg/kg [again equivalent to PRX-002 (−)] were used in some studies (as specified)]. Formulation preparation, dose administration and time of sample collection was as follows.
(§2) Adult male Sprague Dawley Rats aged 8-10 weeks were used for the study. Animals were administered the test item by Intravenous bolus route with a dose of 2 mg/kg body weight at dose volume of 5.0 mL/kg body weight. Under mild isoflurane anesthesia, blood specimens were collected by retro-orbital puncture method using capillary tubes into pre-labeled tubes containing anticoagulant (K2EDTA-2 mg/mL blood) during the next 24 hours of post dose as mentioned in below table. For blood sampling at multiple time points, right and left eyes were used alternatively for blood collection. Collected blood specimens were centrifuged at 4000 rpm, 4° C. for 10 minutes and plasma were separated and stored at −80° C. until analysis.
Blood was collected as outlined in Table 39.2 (IV).
Test item PRX-P4-003 was weighed and transferred to a graduated tube. Then 600 μL of PEG 400 (v/v) was added and vortex mixed thoroughly until the test item was completely dissolved. Then 1.800 mL of Hydroxypropyl-β-cyclodextrin (HPβCD, 50% w/v) was added and vortex mixed thoroughly. The final volume was then made up to 3.600 mL with sterile water for injection (SWFI, v/v) with final formulation strength of 5.16 mgA/mL. […] This formulation was freshly prepared before the administration to animals.
as §2, with “administered with a PRX-P4-003” for “administered the test item”, “of 10” for “of 2”, “of 5” for “of 5.0”
Test item PRX-P5-006 was weighed and transferred to a graduated tube. Then 500 μL of DMSO (v/v) was added vortex mixed thoroughly until the test item was completely dissolved. Then 4000 μL of Hydroxypropyl-β-cyclodextrin (HPβCD, 50% w/v) was added and vortex mixed thoroughly. Then 2500 μL of PEG 400 (v/v) was added and vortex mixed thoroughly. The final volume was then made up to 10000 μL with sterile water for injection (SWFI, v/v) with final formulation strength of 3.97 mg/mL. […] This formulation was freshly prepared before the administration to animals.
as §2, with “administered with a PRX-P5-006” for “administered the test item”, “of 15” for “of 2”, “of 10” for “of 5.0”
The plasma concentrations of fencamfamine were measured by LC-MS/MS over time. […] The release of fencamfamine from the prodrugs varied depending on the chain length of the fatty acid linkers attached to fencamfamine. […]

[2] = Single dose oral PK study in male Sprague Dawley rats (plasma by LC-MS/MS); assay type: in vivo; settings: mean; for AUC: read-out: Oral PK Parameters AUC, Prodrug
Protocol: as §1
Test item was weighed [5 mg equivalent dose of PRX-002 for prodrugs] and transferred to a graduated tube. Then 10 μL of Tween 80 was added and vortexed mixed until the test item was completely mixed. Small volume of 0.5% (w/v) carboxymethylcellulose in water solution was then added dropwise with continuous vortex mixing until a uniform suspension was obtained. The final volume was then made up to 10 mL with 0.5% (w/v) carboxymethylcellulose in water with final strength of 0.5 mg/mL. […] This formulation was freshly prepared before the administration to animals.
as §2, with “study. Fasted animals” for “study. Animals”, “administered” for “administered the”, “by oral” for “by Intravenous bolus”, “of 5” for “of 2”, “of 10” for “of 5.0”
Blood was collected as outlined in Table 39.1 (oral).
(§3) Test item PRX-P4-003 was weighed and transferred to a graduated tube. Then 12.42 μL of Tween 80 was added and vortexed mixed until the test item was completely mixed. Small volume of 0.5% (w/v) Carboxymethylcellulose in water solution was then added dropwise with continuous vortex mixing until a uniform suspension was obtained. The final volume was then made up to 12.42 mL with 0.5% (w/v) Carboxymethylcellulose in water with final strength of 1.0 mgA/mL. […] This formulation was freshly prepared before the administration to animals.
as §2, with “study. Fasted animals” for “study. Animals”, “administered with a PRX-P4-003” for “administered the test item”, “by oral” for “by Intravenous bolus”, “of 10” for “of 2”, “of 10” for “of 5.0”
as §3, with “PRX-P5-006” for “PRX-P4-003”, “10” for “12.42”, “3.97 mg/mL.” for “1.0 mgA/mL.”
Adult male Sprague Dawley Rats aged 8-10 weeks were used for the study. Fasted animals were administered with a PRX-P5-006 by oral route with a dose of 15 mg/kg body weight at dose volume of 10 mL/kg body weight. […]

[3] = male, Sprague Dawley, rat, in vivo, oral 5 mg/kg [equivalent to PRX-002 (−)], analyte: prodrug in plasma, read-out: Oral PK Parameters Tmax, Prodrug
[4] = male, Sprague Dawley, rat, in vivo, po, 5 mg/kg, oral 5 mg/kg [equivalent to PRX-002 (−)], analyte: prodrug in plasma, read-out: Oral PK Parameters Cmax, Prodrug
[5] = male, Sprague Dawley, rat, in vivo, oral 5 mg/kg [equivalent to PRX-002 (−)], analyte: prodrug in plasma

`CCCCCCCCCC(=O)OCOC(=O)N(CC)C1C2CCC(C2)C1c1ccccc1` (single isomer, unassigned) [PRX-P4-002, N-(Decanoyloxymethoxycarbonyl)-(−)-N-ethyl-3-phenylbicyclo[2.2.1]heptan-2-amine] gave a Tmax [1] of 0 h and a Tmax [2, 3] of 0 min.

Work on `CCCCCCCCCC(=O)OC(C)OC(=O)N(CC)C1C2CCC(C2)C1c1ccccc1` (single isomer, unassigned) [PRX-P5-002, N-(1-Decanoyloxyethoxycarbonyl)-(−)-N-ethyl-3-phenylbicyclo[2.2.1]heptan-2-amine] yielded a Tmax [1] of 0 h and a Tmax [2, 3] of 0 min.

With `CCN(C(=O)[C@@H](NC(=O)[C@@H](N)C(C)C)C(C)C)C1C2CCC(C2)C1c1ccccc1` (single isomer, unassigned) [PRX-P6-011, N-(Valyl-valyl)-(+)-N-ethyl-3-phenylbicyclo[2.2.1]heptan-2-amine] the “AUC% extrap of PRX-P6-011” value ([2]; PRX-P6-011 oral 5 mg/kg) was 23.190 ± 3.6640%, the Cmax [2, 4] was 82.2 ± 30.9 ng/mL and the concentration at 0 h ([2]; male, Sprague Dawley, rat, in vivo, PRX-P6-011 oral 5 mg/kg b.w., 0.00 h, read-out: Plasma concentrations of PRX-P6-011) was 0 ng/mL. It also gave a concentration at 0.08 h ([2]; male, Sprague Dawley, rat, in vivo, PRX-P6-011 oral 5 mg/kg b.w., 0.08 h, read-out: Plasma concentrations of PRX-P6-011) of 75.9 ng/mL, a concentration at 4 h ([2]; male, Sprague Dawley, rat, in vivo, PRX-P6-011 oral 5 mg/kg b.w., 4.00 h, read-out: Plasma concentrations of PRX-P6-011) of 0 ng/mL and a concentration at 6 h ([2]; male, Sprague Dawley, rat, in vivo, PRX-P6-011 oral 5 mg/kg b.w., 6.00 h, read-out: Plasma concentrations of PRX-P6-011) of 0 ng/mL. It also gave a concentration at 24 h ([2]; male, Sprague Dawley, rat, in vivo, PRX-P6-011 oral 5 mg/kg b.w., 24.00 h, read-out: Plasma concentrations of PRX-P6-011) of 0 ng/mL, an AUC [2, 5] of 44.2 ± 17.1 ng·h/mL and a Tmax [2, 3] of 8.4 ± 6 min. For the same molecule, the AUC(0-inf) ([2]; male, Sprague-Dawley, rat, in vivo, po, 5 mg/kg, PRX-P6-011 oral 5 mg/kg, read-out: AUCinf of PRX-P6-011) was 57.3 ± 21.3 ng·h/mL, the AUC(0-t) ([2]; male, Sprague-Dawley, rat, in vivo, po, 5 mg/kg, PRX-P6-011 oral 5 mg/kg, read-out: AUClast of PRX-P6-011) was 44.2 ± 17.1 ng·h/mL and the Cmax ([2]; male, Sprague-Dawley, rat, in vivo, po, 5 mg/kg, PRX-P6-011 oral 5 mg/kg, read-out: Cmax of PRX-P6-011) was 82.2 ± 30.9 ng/mL. For the same molecule, the MRT last ([2]; male, Sprague-Dawley, rat, in vivo, po, 5 mg/kg, PRX-P6-011 oral 5 mg/kg, read-out: MRTlast of PRX-P6-011) was 34.5 ± 2.22 min, the half-life ([2]; male, Sprague-Dawley, rat, in vivo, po, 5 mg/kg, PRX-P6-011 oral 5 mg/kg, read-out: T1/2 of PRX-P6-011 (converted)) was 70.3 ± 12.7 min and the concentration at 0.25 h ([2]; male, Sprague-Dawley, rat, in vivo, PRX-P6-011 oral 5 mg/kg b.w., 0.25 h, read-out: Plasma concentrations of PRX-P6-011) was 62.8 ng/mL. The concentration at 0.5 h ([2]; male, Sprague-Dawley, rat, in vivo, PRX-P6-011 oral 5 mg/kg b.w., 0.50 h, read-out: Plasma concentrations of PRX-P6-011) was 20.8 ng/mL, the concentration at 1 h ([2]; male, Sprague-Dawley, rat, in vivo, PRX-P6-011 oral 5 mg/kg b.w., 1.00 h, read-out: Plasma concentrations of PRX-P6-011) was 13 ng/mL and the concentration at 2 h ([2]; male, Sprague-Dawley, rat, in vivo, PRX-P6-011 oral 5 mg/kg b.w., 2.00 h, read-out: Plasma concentrations of PRX-P6-011) was 7.87 ng/mL. For the same molecule, the Tmax ([2]; male, Sprague-Dawley, rat, in vivo, PRX-P6-011 oral 5 mg/kg, read-out: Tmax of PRX-P6-011) was 8.22 ± 5.88 min.

`CCN(C(=O)[C@@H](N)CCCCN)C1C2CCC(C2)C1c1ccccc1` (stereo partly drawn) [PRX-P1-005, N-Lysyl-(−)-N-ethyl-3-phenylbicyclo[2.2.1]heptan-2-amine] gave a Cmax [2, 4] of 32 ± 7.5 ng/mL, an AUC [2, 5] of 42 ± 9.4 ng·h/mL and a Tmax [2, 3] of 30 min.

With `CCN(C(=O)[C@@H](N)Cc1ccccc1)C1C2CCC(C2)C1c1ccccc1` (stereo partly drawn) [PRX-P1-013, N-Phenylalanyl-(−)-N-ethyl-3-phenylbicyclo[2.2.1]heptan-2-amine] the Cmax [2, 4] was 307 ± 49.6 ng/mL, the AUC [2, 5] was 678 ± 101 ng·h/mL and the Tmax [2, 3] was 42 ± 18 min.
